Counter-ions that a name gives are not always drawn.
Each molecule was assayed against T1, human TRPV4 (Homo sapiens, UniProt Q9HBA0) (assay: FLIPR assay for hTRPV4 expressed in BHK cells: inhibition of Agonist Compound-induced calcium signal). Conditions: hTRPV4 FLIPR assay; average in at least one set of experimental runs; read-out: average IC50.
T1 construct: expressed in transfected cells; host or cells: BHK/AC9 cells transduced with BacMam virus
Format: cell-based
Summary of the method: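 Calcium influx through TRPV4 tracked by Fluo-4 fluorescence on FLIPR. Cells: BHK/AC9 transduced with BacMam-hTRPV4 at MOI 78, 24 h culture post-plating (15,000 cells/well). Dye loading: 2 μM Fluo-4 AM with 500 μM Brilliant Black quencher, 1-1.5 h, room temperature, dark.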

T1 sequence (Q9HBA0 whole entry): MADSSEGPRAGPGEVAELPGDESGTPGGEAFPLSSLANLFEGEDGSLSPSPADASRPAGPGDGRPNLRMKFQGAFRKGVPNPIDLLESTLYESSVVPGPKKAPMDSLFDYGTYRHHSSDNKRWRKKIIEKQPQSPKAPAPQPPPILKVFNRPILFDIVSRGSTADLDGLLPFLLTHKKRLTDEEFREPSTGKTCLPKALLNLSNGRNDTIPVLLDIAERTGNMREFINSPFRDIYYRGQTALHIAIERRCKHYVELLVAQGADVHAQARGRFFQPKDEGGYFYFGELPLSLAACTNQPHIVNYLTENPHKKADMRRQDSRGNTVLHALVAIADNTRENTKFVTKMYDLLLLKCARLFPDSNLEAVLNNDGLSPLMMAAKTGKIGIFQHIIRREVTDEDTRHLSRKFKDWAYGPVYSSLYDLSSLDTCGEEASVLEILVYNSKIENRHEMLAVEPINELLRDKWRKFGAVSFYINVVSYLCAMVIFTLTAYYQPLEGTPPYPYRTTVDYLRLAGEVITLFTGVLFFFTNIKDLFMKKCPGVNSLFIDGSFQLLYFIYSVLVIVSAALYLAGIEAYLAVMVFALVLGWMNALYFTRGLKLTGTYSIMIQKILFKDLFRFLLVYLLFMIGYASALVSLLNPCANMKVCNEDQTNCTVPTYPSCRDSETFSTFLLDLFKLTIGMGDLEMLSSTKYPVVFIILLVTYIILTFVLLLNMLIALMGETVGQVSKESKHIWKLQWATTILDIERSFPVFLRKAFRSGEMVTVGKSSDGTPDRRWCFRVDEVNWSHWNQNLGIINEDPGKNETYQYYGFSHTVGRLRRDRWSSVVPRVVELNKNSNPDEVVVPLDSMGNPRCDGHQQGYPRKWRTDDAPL

Row | SMILES | IC50
1 | N#Cc1cc(C(F)(F)F)ccc1S(=O)(=O)N1C[C@H](Oc2ccc(Cl)cc2)[C@](O)(CO)C1 [Example 6, 2-(((3R,4S)-4-(4-chlorophenoxy)-3-hydroxy-3-(hydromethyl)pyrrolidin-1-yl)sulfonyl)-5-(trifluoromethyl)benzonitrile] | 3 nM

Same assay, conditions: hTRPV4 in BHK/AC9 cells, FLIPR calcium signal, agonist at EC80; reported as range class; read-out: IC50

Row | SMILES | IC50
2 | N#Cc1ccc(O[C@H]2CN(S(=O)(=O)c3ccc(Cl)nc3)C[C@@]2(O)CO)cc1F [Example 91, 4-(((3S,4R)-1-((6-chloropyridin-3-yl)sulfonyl)-4-hydroxy-4-(hydroxymethyl)pyrrolidin-3-yl)oxy)-2-fluorobenzonitrile] | 10 to 100 nM
3 | N#Cc1ccc(S(=O)(=O)N2C[C@H](Oc3ccc(C#N)c(F)c3)[C@](O)(CN)C2)cn1 [Example 243, 5-(((3S,4S)-3-(aminomethyl)-4-(4-cyano-3-fluorophenoxy)-3-hydroxpyrrolidin-1-yl)sulfonyl) picolinonitrile, 2,2,2-trifluoroacetate] | 10 to 100 nM
4 | C[C@@H](O)[C@]1(O)CN(S(=O)(=O)c2ccc(C(F)(F)F)cc2C#N)C[C@@H]1Oc1ccc(C#N)c(F)c1 [Example 193, 4-(((3S,4R)-1-((2-cyano-4-(trifluoromethyl)phenyl)sulfonyl)-4-hydroxy-4-((R)-1-hydroxyethyl)pyrrolidin-3-yl)oxy)-2-fluorobenzonitrile] | 0.1 to 10 nM
5 | N#Cc1ccc(O[C@H]2CN(S(=O)(=O)c3ccc(C(F)(F)F)cc3Cl)C[C@@]2(O)CO)cn1 [Example 74, 5-(((3S,4R)-1-((2-chloro-4-(trifluoromethyl)phenyl)sulfonyl)-4-hydroxy-4-(hydroxymethyl)pyrrolidin-3-yl)oxy)picolinonitrile] | 10 to 100 nM
6 | N#Cc1ccc(O[C@H]2CN(S(=O)(=O)c3ccc(Cl)cn3)C[C@@]2(O)CN)cc1 [Example 246, 4-(((3S,4S)-4-(aminomethyl)-1-((5-chloropyridin-2-yl)sulfonyl)-4-hydroxpyrrolidin-3-yl)oxy)benzonitrile] | 10 to 100 nM
7 | C[C@H](O)[C@]1(O)CN(S(=O)(=O)c2ccc(Cl)cc2Cl)C[C@@H]1Oc1ccc(C#N)c(F)c1 [Example 204, 4-(((3S,4R)-1-((2,4-dichlorophenyl)sulfonyl)-4-hydroxy-4-((S)-1-hydroxyethyl)pyrrolidin-3-yl)oxy)-2-fluorobenzonitrile] | 0.1 to 10 nM
8 | N#Cc1cc(OCC(F)(F)F)c(O[C@H]2CN(S(=O)(=O)c3ccccc3C#N)C[C@@]2(O)CO)cc1F [Example 173, 4-(((3S,4R)-1-((2-cyanophenyl)sulfonyl)-4-hydroxy-4-(hydroxymethyl)pyrrolidin-3-yl)oxy)-2-fluoro-5-(2,2,2-trifluoroethoxy) benzonitrile] | 0.1 to 10 nM
9 | N#Cc1ccc(O[C@H]2CN(S(=O)(=O)c3ccc(C(F)F)cn3)C[C@@]2(O)CN)cc1F [Example 244, 4-(((3S,4S)-4-(aminomethyl)-1-((5-(difluoromethyl)pyridin-2-yl)sulfonyl)-4-hydroxpyrrolidin-3-yl)oxy)-2-fluorobenzonitrile] | 10 to 100 nM
10 | CC#Cc1ccc(S(=O)(=O)N2C[C@H](Oc3ccc(C#N)c(F)c3)[C@](O)(CO)C2)cn1 [Example 223, 2-fluoro-4-(((3S,4R)-4-hydroxy-4-(hydroxymethyl)-1-((6-(prop-1-yn-1-yl)pyridin-3-yl)sulfonyl)pyrrolidin-3-yl)oxy)benzonitrile] | 10 to 100 nM
11 | N#Cc1cc(C(F)(F)F)ccc1S(=O)(=O)N1C[C@H](Oc2ccc(OC(F)(F)F)c(F)c2)[C@](O)(CO)C1 [Example 40, 2-(((3R,4S)-4-(3-fluoro-4-(trifluoromethoxy)phenoxy)-3-hydroxy-3-(hydroxymethyl)pyrrolidin-1-yl)sulfonyl)-5-(trifluoromethyl)benzonitrile] | 0.1 to 10 nM
12 | COc1cc(C#N)c(F)cc1O[C@H]1CN(S(=O)(=O)c2ccc(C(F)(F)F)cc2C#N)C[C@@]1(O)CO [Example 158, 4-(((3S,4R)-1-((2-cyano-4-(trifluoromethyl)phenyl)sulfonyl)-4-hydroxy-4-(hydroxymethyl)pyrrolidin-3-yl)oxy)-2-fluoro-5-methoxybenzonitrile] | 0.1 to 10 nM
13 | CNC[C@]1(O)CN(S(=O)(=O)c2ccc(C(F)(F)F)cc2C#N)C[C@@H]1Oc1ccc(C#N)c(F)c1 [Example 237, 4-(((3S,4S)-1-((2-cyano-4-(trifluoromethyl)phenyl)sulfonyl)-4-hydroxy-4-((methylamino)methyl)pyrrolidin-3-yl)oxy)-2-fluorobenzonitrile, 2,2,2-trifluoroacetate] | 0.1 to 10 nM
14 | COc1ccc(O[C@H]2CN(S(=O)(=O)c3ccc(C(F)(F)F)cc3C#N)C[C@@]2(O)CO)cc1 [Example 52, 2-(((3R,4S)-3-hydroxy-3-(hydroxymethyl)-4-(4-methoxyphenoxy)pyrrolidin-1-yl)sulfonyl)-5-(trifluoromethyl)benzonitrile] | 10 to 100 nM
15 | N#Cc1ccc(O[C@H]2CN(S(=O)(=O)c3cccnc3OC(F)F)C[C@@]2(O)CO)cc1F [Example 122, 4-(((3S,4R)-1-((2-(difluoromethoxy)pyridin-3-yl)sulfonyl)-4-hydroxy-4-(hydroxymethyl)pyrrolidin-3-yl)oxy)-2-fluorobenzonitrile] | 0.1 to 10 nM
16 | N#Cc1cccc(O[C@H]2CN(S(=O)(=O)c3ccc(C(F)(F)F)cc3C#N)C[C@@]2(O)CO)c1 [Example 53, 2-(((3R,4S)-4-(3-cyanophenoxy)-3-hydroxy-3-(hydroxymethyl)pyrrolidin-1-yl)sulfonyl)-5-(trifluoromethyl)benzonitrile] | 10 to 100 nM
17 | N#Cc1ccc(O[C@H]2CN(S(=O)(=O)c3ccc(-c4ccccc4)cc3C#N)C[C@@]2(O)CO)cc1F [Example 218, 4-(((3R,4S)-4-(4-cyano-3-fluorophenoxy)-3-hydroxy-3-(hydroxymethyl)pyrrolidin-1-yl)sulfonyl)-[1,1′-biphenyl]-3-carbonitrile] | 10 to 100 nM
18 | N#Cc1cc(C(F)(F)F)ccc1S(=O)(=O)N1C[C@H](Oc2ccc(C(F)(F)F)c(F)c2)[C@](O)(CO)C1 [Example 31, 2-(((3R,4S)-4-(3-fluoro-4-(trifluoromethyl)phenoxy)-3-hydroxy-3-(hydroxymethyl)pyrrolidin-1-yl)sulfonyl)-5-(trifluoromethyl)benzonitrile] | 0.1 to 10 nM
19 | N#Cc1ccc(O[C@H]2CN(S(=O)(=O)c3ccc(Cl)cc3C#N)C[C@]2(O)CN)cc1F [Example 235, 4-(((3S,4R)-4-(aminomethyl)-1-((4-chloro-2-cyanophenyl)sulfonyl)-4-hydroxypyrrolidin-3-yl)oxy)-2-fluorobenzonitrile, Hydrochloride] | 0.1 to 10 nM
20 | N#Cc1cc(C(F)(F)F)ccc1S(=O)(=O)N1C[C@H](Oc2ccc(Cl)cc2)[C@](O)(CO)C1 [Example 6, 2-(((3R,4S)-4-(4-chlorophenoxy)-3-hydroxy-3-(hydromethyl)pyrrolidin-1-yl)sulfonyl)-5-(trifluoromethyl)benzonitrile] | 0.1 to 10 nM
21 | N#Cc1ccc(O[C@H]2CN(S(=O)(=O)c3ccc(OC(F)(F)F)cn3)C[C@@]2(O)CN)cc1F [Example 248, 4-(((3S,4S)-4-(aminomethyl)-4-hydroxy-1-((5-(trifluoromethoxy)pyridin-2-yl)sulfonyl)pyrrolidin-3-yl)oxy)-2-fluorobenzonitrile] | 10 to 100 nM
22 | CC#Cc1cc(C#N)ccc1S(=O)(=O)N1C[C@H](Oc2ccc(C#N)c(F)c2)[C@](O)(CO)C1 [Example 224, 4-(((3S,4R)-1-((4-cyano-2-(prop-1-yn-1-yl)phenyl)sulfonyl)-4-hydroxy-4-(hydroxymethyl)pyrrolidin-3-yl)oxy)-2-fluorobenzonitrile] | 10 to 100 nM
23 | N#Cc1ccc(O[C@H]2CN(S(=O)(=O)c3ccc(C(F)(F)F)cc3C#N)C[C@@]2(O)CO)c(C(F)(F)F)c1 [Example 17, 2-(((3R,4S)-4-(4-cyano-2-(trifluoromethyl)phenoxy)-3-hydroxy-3-(hydroxymethyl)pyrrolidin-1-yl)sulfonyl)-5-(trifluoromethyl)benzonitrile] | 0.1 to 10 nM
24 | COc1ccc(C#N)cc1O[C@H]1CN(S(=O)(=O)c2ccc(C(F)(F)F)cc2C#N)C[C@@]1(O)CO [Example 54, 2-(((3R,4S)-4-(5-cyano-2-methoxyphenoxy)-3-hydroxy-3-(hydroxymethyl)pyrrolidin-1-yl)sulfonyl)-5-(trifluoromethyl)benzonitrile] | 10 to 100 nM
25 | CC(C)Oc1cc(C#N)c(F)cc1O[C@H]1CN(S(=O)(=O)c2ccc(C(F)(F)F)cc2C#N)C[C@@]1(O)CO [Example 161, 4-(((3S,4R)-1-((2-cyano-4-(trifluoromethyl)phenyl)sulfonyl)-4-hydroxy-4-(hydroxymethyl)pyrrolidin-3-yl)oxy)-2-fluoro-5-isopropoxybenzonitrile] | 0.1 to 10 nM
26 | N#Cc1ccc(O[C@H]2CN(S(=O)(=O)c3ccc(C(F)(F)F)cc3C#N)C[C@]2(O)CO)cc1F [Example 135, 4-(((3S,4S)-1-((2-cyano-4-(trifluoromethyl)phenyl)sulfonyl)-4-hydroxy-4-(hydroxymethyl)pyrrolidin-3-yl)oxy)-2-fluorobenzonitrile] | 0.1 to 10 nM
27 | N#Cc1cc(C(F)(F)F)ccc1S(=O)(=O)N1C[C@H](Oc2ccc(Cl)cc2)[C@@](O)(CO)C1 [Example 146, 2-(((3S,4S)-4-(4-chlorophenoxy)-3-hydroxy-3-(hydroxymethyl)pyrrolidin-1-yl)sulfonyl)-5-(trifluoromethyl)benzonitrile] | 10 to 100 nM
28 | N#Cc1ccc(O[C@H]2CN(S(=O)(=O)c3ccc(C(F)(F)F)cc3C#N)C[C@@]2(O)CO)c(O)c1 [Example 168, 2-(((3R,4S)-4-(4-cyano-2-hydroxyphenoxy)-3-hydroxy-3-(hydroxymethyl)pyrrolidin-1-yl)sulfonyl)-5-(trifluoromethyl)benzonitrile] | 10 to 100 nM
29 | N#CCc1cccc(O[C@H]2CN(S(=O)(=O)c3ccc(C(F)(F)F)cc3C#N)C[C@@]2(O)CO)c1 [Example 33, 2-(((3R,4S)-4-(3-(cyanomethyl)phenoxy)-3-hydroxy-3-(hydroxymethyl)pyrrolidin-1-yl)sulfonyl)-5-(trifluoromethyl)benzonitrile] | 10 to 100 nM

From patent US11229623B2 (GlaxoSmithKline Intellectual Property (No.2) Limited, priority 2016, dated 2022)
